In US4432973A, “Benzoyl- and α-hydroxybenzyl-phenyl-glycosides and application thereof in therapeutics” (Societe de Recherches Industrielles (S.O.R.I.), priority 1980, dated 1984):

Tests used:
[1] = Acute toxicity in the mouse by the I.P. route; type: in vivo; settings: for LD50: read-out: DL-50 (lethal dose involving the death of half of the animals)
From the text: The acute toxicity was studied in the mouse by the I.P. route. It is expressed in the form of DL-50 (lethal dose involving the death of half of the animals) or DL-0 (maximum non-lethal dose).

[2] = Anti-ulcer activity: ulcer caused by aspirin; type: in vivo, rat (male Wistar); settings: 100 mg/kg I.P.; aspirin 192 mg/kg per os; standardised to control batch and cimetidine (index 1)
Description: The experiment is carried out on male Wistar rats of 180 to 200 g. The products to be tested are administered at 100 mg/kg I.P. (unless indicated to the contrary in Table IV).
At t=0, the rats are made to fast and a first administration of the product to be tested is made.
At t=18 hours, 2 ml of an ulcer-forming suspension with 192 mg of aspirin/kg are administered per os then a second administration of the product to be tested is made.
At t=22 hours, the animals are sacrificed and the ulcers are marked as follows: small point-like ulcers: mark 1 more extensive ulcers: mark 3 highly extensive or very deep ulcers: mark 9
This marking is standardised with respect to a control batch and to cimetidine (a reference product) to which index 1 has been allocated.

[3] = test system: blood platelet aggregation; experiment: Spontaneous aggregation: blood platelet anti-aggregation activity; type: in vivo, rat (adult male); settings: t=5 hours, rat; for inhibition in vivo at 100 mg/kg: ip, 100 mg/kg I.P.
Description: The technique used is that of Sanders described in Laboratory Animal Science 27 (No. 5), pages 757-761 (1977).
After administration at 100 mg/kg I.P. (unless specified to the contrary in Table V hereinbelow) of the product to be tested to adult male reproducing rats, two blood samples are taken, one on sodium citrate and the other on sodium citrate treated with formaldehyde at instant t=5 hours.
After centrifugation of the samples, a platelet count is made on the supernatant liquid. The spontaneous aggregation index according to Wu and Hook Stroke 6, 521-524 (1975) is expressed by the relation: [formula]

[4] = Anti-hypoxic activity: survival to hypoxia (nitrogen-oxygen 95:5); type: in vivo, mouse (Swiss male); settings: I.P., 1/10th of LD-50 or 100 mg/kg when LD-0 ≥ 800 mg/kg; up to 15 minutes; mouse
Description: The experiment is carried out on batches of 20 Swiss male mice weighing from 20 to 30 g. Each product to be tested is administered to the mice by intraperitoneal route at a dose corresponding to 1/10th of the LD-50 or at a dose of 100 mg/kg when the LD-0 is higher than or equal to 800 mg/kg. The mice are placed in a nitrogen-oxygen (95:5) v/v atmosphere. The survival time of the mice is then measured up to 15 minutes maximum.
The results shown in Table VII are expressed in percentage of survival with respect to a non-treated control batch and a batch treated with an anti-hypoxic reference product [specialty known under the trade name of "Duxil" and which is constituted by a mixture of Almitrine bis-methanesulfonate and of Raubasine in the weight ratio 3:1], the anti-hypoxic reference product being administered at the dose of 18 mg/kg I.P.

[5] = Veinous thrombosis: veinous anti-thrombus activity; type: in vivo; settings: Rattus norvegicus, ip, 100 mg/kg I.P., 4 to 5 hours after administration, read-out: Diminution of veinous thrombus
Description: The technique used is similar to the one described by Peterson-Zucker in Thrombo.Diath.Haemorh. 23, 1, (1970).
An occlusive thrombus is created in the […] vena cava of a rat by the combined action of an endothelial alteration and a veinous stasis for 15 mins. and 4 to 5 hours after administration of the product to be tested (100 mg/kg I.P.).

Compound	DL-0 (maximum non-lethal dose) ([1]; in vivo, ip) [mg/kg IP]	Ulcer index [2]	Survival (survival percentage to hypoxic aggression) [4]	inhibition in vivo at 100 mg/kg [5] [%]	LD50 ([1]; in vivo, ip, I.P.) [mg/kg]	other results
O=C(c1ccc(O[C@@H]2OC[C@@H](O)[C@H](O)[C@H]2O)cc1)c1ccc([N+](=O)[O-])cc1 [Example 1, [4-(4-nitrobenzoyl)-phenyl]-β-D-xylopyranoside]	> 800	0.56	+++ (higher than or equal to 80%)			inhibition in vivo at 100 mg/kg ([3]; Platelet): ≥ 40%
O=C(c1ccc(Cl)cc1)c1ccc(O[C@@H]2OC[C@@H](O)[C@H](O)[C@H]2O)cc1 [Example 3]	> 800		+++ (higher than or equal to 80%)	30 to 49		
Cc1ccc(C(=O)c2ccc(O[C@@H]3OC[C@@H](O)[C@H](O)[C@H]3O)cc2)cc1 [Example 12]	> 800	0.26	++ (from 50 to 79%)			inhibition in vivo at 100 mg/kg ([3]; Platelet): 25 to 39%
Cc1ccccc1C(=O)c1ccc(O[C@@H]2OC[C@@H](O)[C@H](O)[C@H]2O)cc1 [Example 14]				≥ 50	740	inhibition in vivo at 75 mg/kg ([3]; Platelet, 75 mg/kg IP): ≥ 40%
Cc1ccccc1C(=O)c1cc(C)c(O[C@@H]2OC[C@@H](O)[C@H](O)[C@H]2O)c(C)c1 [Example 21]		0.16			600	inhibition in vivo at 100 mg/kg ([3]; Platelet): ≥ 40%
COc1ccc(C(=O)c2cccc(O[C@@H]3OC[C@@H](O)[C@H](O)[C@H]3O)c2)cc1 [Example 54]		0.57		30 to 49		DL-0 (maximum non-lethal dose) ([1]; I.P.): > 800 mg/kg IP; inhibition in vivo at 100 mg/kg ([3]; Platelet): ≥ 40%
CC(=O)O[C@@H]1[C@@H](OC(C)=O)[C@H](Oc2ccc(C(=O)c3ccc(Br)cc3)cc2)OC[C@H]1OC(C)=O [Example 75]		0.32		30 to 49		DL-0 (maximum non-lethal dose) ([1]; I.P.): > 800 mg/kg IP
CC(=O)O[C@@H]1[C@@H](OC(C)=O)[C@H](Oc2ccc(C(=O)c3ccc(C)cc3)cc2)OC[C@H]1OC(C)=O [Example 76]	> 800	0.38	++ (from 50 to 79%)	30 to 49		
COc1cc(C(=O)c2ccc(O[C@@H]3OC[C@@H](OC(C)=O)[C@H](OC(C)=O)[C@H]3OC(C)=O)cc2)cc(OC)c1OC [Example 79]						DL-0 (maximum non-lethal dose) ([1]; I.P.): > 800 mg/kg IP; inhibition in vivo at 100 mg/kg ([3]; Platelet): ≥ 40%
COc1ccc(C(=O)c2ccc(O[C@@H]3OC[C@@H](OC(C)=O)[C@H](OC(C)=O)[C@H]3OC(C)=O)cc2)cc1 [Example 81]		0.64		30 to 49		DL-0 (maximum non-lethal dose) ([1]; I.P.): > 800 mg/kg IP
Cc1cc(C(=O)c2ccccc2C)ccc1O[C@@H]1OC[C@@H](O)[C@H](O)[C@H]1O [Example 85]			+ (from 30 to 49%)	≥ 50	> 550	
OC(c1ccc(O[C@@H]2OC[C@@H](O)[C@H](O)[C@H]2O)cc1)c1ccc(Cl)cc1Cl (some centres unmarked) [Example 86]		0.50		30 to 49	> 350	
O=[N+]([O-])c1cccc(C(O)c2ccc(O[C@@H]3OC[C@@H](O)[C@H](O)[C@H]3O)cc2)c1 (some centres unmarked) [Example 87]		0.35		≥ 50	> 600	
OC(c1ccc(O[C@@H]2OC[C@@H](O)[C@H](O)[C@H]2O)cc1)c1ccccc1Cl (some centres unmarked) [Example 88]		0.39		≥ 50		DL-0 (maximum non-lethal dose) ([1]; I.P.): > 800 mg/kg IP
Cc1ccccc1C(O)c1ccc(O[C@@H]2OC[C@@H](O)[C@H](O)[C@H]2O)cc1 (some centres unmarked) [Example 89]		0.88		≥ 50		DL-0 (maximum non-lethal dose) ([1]; I.P.): > 800 mg/kg IP
OC(c1ccc(Cl)cc1)c1ccc(O[C@@H]2OC[C@@H](O)[C@H](O)[C@H]2O)cc1 (some centres unmarked) [Example 91]	> 800	0.72	+++ (higher than or equal to 80%)	30 to 49		
OC(c1ccc(Cl)cc1)c1ccc(O[C@@H]2OC[C@@H](O)[C@H](O)[C@H]2O)cc1 (some centres unmarked) [Example 94]			+ (from 30 to 49%)			DL-50 (lethal dose involving the death of half of the animals) ([1]; I.P.): 330 mg/kg IP; Inhibition of platelet aggregation ([3]; 33 mg/kg IP): + (inhibition of 25 to 39%)
O=[N+]([O-])c1ccccc1C(O)c1ccc(O[C@@H]2OC[C@@H](O)[C@H](O)[C@H]2O)cc1 (some centres unmarked) [Example 101]	> 800	0.56	+ (from 30 to 49%)	≥ 50		
CC(=O)O[C@@H]1[C@@H](OC(C)=O)[C@H](Oc2ccc(C(=O)c3ccc([N+](=O)[O-])cc3)cc2C)OC[C@H]1OC(C)=O [Example 104]	> 800	0.84	++ (from 50 to 79%)			inhibition in vivo at 100 mg/kg ([3]; Platelet): ≥ 40%
Cc1cc(C(O)c2ccccc2C)ccc1O[C@@H]1OC[C@@H](O)[C@H](O)[C@H]1O (some centres unmarked) [Example 105]					450	inhibition in vivo at 45 mg/kg ([3]; Platelet, 45 mg/kg IP): 25 to 39%
CC(=O)O[C@@H]1[C@@H](OC(C)=O)[C@H](Oc2ccc(C(=O)c3cccc(C(F)(F)F)c3)cc2)OC[C@H]1OC(C)=O [Example 108]	> 800	0.30	+ (from 30 to 49%)	30 to 49		
CC(=O)O[C@@H]1[C@@H](OC(C)=O)[C@H](Oc2c(C)cc(C(=O)c3ccccc3Cl)cc2C)OC[C@H]1OC(C)=O [Example 113]			+++ (higher than or equal to 80%)		630	inhibition in vivo at 63 mg/kg ([3]; Platelet, 63 mg/kg IP): ≥ 40%
CC(=O)O[C@@H]1[C@@H](OC(C)=O)[C@H](Oc2c(C)cc(C(=O)c3ccc(Cl)cc3)cc2C)OC[C@H]1OC(C)=O [Example 114]	> 800		++ (from 50 to 79%)			inhibition in vivo at 100 mg/kg ([3]; Platelet): 25 to 39%
CC(=O)N[C@H]1[C@H](Oc2ccc(C(=O)c3ccc(C(F)(F)F)cc3)cc2)O[C@H](CO)[C@@H](O)[C@@H]1O [Example 118]	> 800	0.53	++ (from 50 to 79%)			inhibition in vivo at 100 mg/kg ([3]; Platelet): 25 to 39%
CC(=O)N[C@H]1[C@H](Oc2c(C)cc(C(=O)c3ccc([N+](=O)[O-])cc3)cc2C)O[C@H](CO)[C@@H](O)[C@@H]1O [Example 119]	> 800	0.47	+++ (higher than or equal to 80%)	≥ 50		
CC(=O)N[C@H]1[C@H](Oc2ccc(C(O)c3ccc([N+](=O)[O-])cc3)cc2)O[C@H](CO)[C@@H](O)[C@@H]1O (some centres unmarked) [Example 123]	> 800		++ (from 50 to 79%)	30 to 49		
O=C(c1ccc(O[C@@H]2OC[C@@H](O)[C@H](O)[C@H]2O)cc1)c1ccccc1O [Example 125]			+ (from 30 to 49%)	30 to 49	1700	
OC[C@H]1O[C@@H](Oc2ccc(C(O)c3ccc(Cl)cc3)cc2)[C@H](O)[C@@H](O)[C@@H]1O (some centres unmarked) [Example 131]			++ (from 50 to 79%)	30 to 49	730	
